Assay results reported in patent publication US20220281848A1, “PYRAZOLE-SUBSTITUTED PYRROLIDINONES AS HERBICIDES” (FMC Corporation, priority 2019, published 2022).

Columns and labels:
Assay type in all cases: in vivo
Conditions in all cases: after 13 d
[1] = system: redroot pigweed (Amaranthus retroflexus, AMARE); assay: Test A post-emergence, redroot pigweed
How it was run: (§1)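 Foliar application to 8-day-old seedlings at 15.625, 62.5 or 250 g/ha; phytotoxicity scored 0–100 after 13 d.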

[2] = system: velvetleaf (Abutilon theophrasti, ABUTH); assay: Test A pre-emergence, velvetleaf
How it was run: (§2)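 After sowing in pots and a single day of glasshouse cultivation, the soil was treated with an aqueous spray of the compound (acetone/water 50:50, 0.5% Tween 20) giving 15.625, 62.5 or 250 g/ha. Evaluation after 13 d used a scale where 0 meant no damage and 100 total damage.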

[3] = system: barnyardgrass (Echinochloa crus-galli, ECHCG); assay: Test A pre-emergence, barnyardgrass
How it was run: as §2

corn (Zea mays, ZEAMX) [4] = assay: Test A post-emergence, corn
How it was run: as §1

corn (Zea mays, ZEAMX) [5] = assay: Test A pre-emergence, corn
How it was run: as §2

[6] = system: giant foxtail (Setaria faberi, SETFA); assay: Test A post-emergence, giant foxtail
How it was run: as §1

[7] = system: redroot pigweed (Amaranthus retroflexus, AMARE); assay: Test A pre-emergence, redroot pigweed
How it was run: as §2

[8] = system: barnyardgrass (Echinochloa crus-galli, ECHCG); assay: Test A post-emergence, barnyardgrass
How it was run: as §1

[9] = system: giant foxtail (Setaria faberi, SETFA); assay: Test A pre-emergence, giant foxtail
How it was run: as §2

[10] = system: ivy-leaved morning glory (Ipomoea hederacea, IPOHE); assay: Test A post-emergence, ivy-leaved morning glory
How it was run: as §1

[11] = system: velvetleaf (Abutilon theophrasti, ABUTH); assay: Test A post-emergence, velvetleaf
How it was run: as §1

[12] = system: ivy-leaved morning glory (Ipomoea hederacea, IPOHE); assay: Test A pre-emergence, ivy-leaved morning glory
How it was run: as §2

CCn1nc(C2CN(C)C(=O)C2C(=O)Nc2cccc(F)c2F)c2cccc(F)c21 (stereo not drawn) [Compound 15]
0: damage to plant (100=total damage; 0=no damage) AMARE ([1]; Post-Emergence at 15.625 g/ha) | damage to plant (100=total damage; 0=no damage) AMARE ([1]; Post-Emergence at 62.5 g/ha) | damage to plant (100=total damage; 0=no damage) AMARE ([1]; Post-Emergence at 250 g/ha) | damage to plant (100=total damage; 0=no damage) ABUTH ([2]; Pre-Emergence at 62.5 g/ha) | damage to plant (100=total damage; 0=no damage) ABUTH ([2]; Pre-Emergence at 250 g/ha) | damage to plant (100=total damage; 0=no damage) ECHCG ([3]; Pre-Emergence at 62.5 g/ha) | damage to plant (100=total damage; 0=no damage) ECHCG ([3]; Pre-Emergence at 250 g/ha) | damage to plant (100=total damage; 0=no damage) ZEAMX (corn (Zea mays, ZEAMX) [4]; Post-Emergence at 15.625 g/ha) | damage to plant (100=total damage; 0=no damage) ZEAMX (corn (Zea mays, ZEAMX) [4]; Post-Emergence at 62.5 g/ha) | damage to plant (100=total damage; 0=no damage) ZEAMX (corn (Zea mays, ZEAMX) [4]; Post-Emergence at 250 g/ha) | damage to plant (100=total damage; 0=no damage) ZEAMX (corn (Zea mays, ZEAMX) [5]; Pre-Emergence at 62.5 g/ha) | damage to plant (100=total damage; 0=no damage) ZEAMX (corn (Zea mays, ZEAMX) [5]; Pre-Emergence at 250 g/ha) | damage to plant (100=total damage; 0=no damage) SETFA ([6]; Post-Emergence at 15.625 g/ha) | damage to plant (100=total damage; 0=no damage) SETFA ([6]; Post-Emergence at 62.5 g/ha) | damage to plant (100=total damage; 0=no damage) SETFA ([6]; Post-Emergence at 250 g/ha) | damage to plant (100=total damage; 0=no damage) AMARE ([7]; Pre-Emergence at 62.5 g/ha) | damage to plant (100=total damage; 0=no damage) AMARE ([7]; Pre-Emergence at 250 g/ha) | damage to plant (100=total damage; 0=no damage) ECHCG ([8]; Post-Emergence at 15.625 g/ha) | damage to plant (100=total damage; 0=no damage) ECHCG ([8]; Post-Emergence at 62.5 g/ha) | damage to plant (100=total damage; 0=no damage) ECHCG ([8]; Post-Emergence at 250 g/ha) | damage to plant (100=total damage; 0=no damage) SETFA ([9]; Pre-Emergence at 62.5 g/ha) | damage to plant (100=total damage; 0=no damage) SETFA ([9]; Pre-Emergence at 250 g/ha) | damage to plant (100=total damage; 0=no damage) IPOHE ([10]; Post-Emergence at 15.625 g/ha) | damage to plant (100=total damage; 0=no damage) IPOHE ([10]; Post-Emergence at 62.5 g/ha) | damage to plant (100=total damage; 0=no damage) IPOHE ([10]; Post-Emergence at 250 g/ha) | damage to plant (100=total damage; 0=no damage) ABUTH ([11]; Post-Emergence at 15.625 g/ha) | damage to plant (100=total damage; 0=no damage) ABUTH ([11]; Post-Emergence at 62.5 g/ha) | damage to plant (100=total damage; 0=no damage) ABUTH ([11]; Post-Emergence at 250 g/ha) | damage to plant (100=total damage; 0=no damage) IPOHE ([12]; Pre-Emergence at 62.5 g/ha) | damage to plant (100=total damage; 0=no damage) IPOHE ([12]; Pre-Emergence at 250 g/ha)
